According to PubChem BioAssay (NCI):
Several values for one entry are separate records, joined by “and”; a condition that tells them apart may be missing. Equal values may be shown once.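 1) Cells in 96-well plates. 2) Compound, 48 h, 5 concentrations. 3) Linear interpolation between surrounding doses. 4) Unreached endpoint = highest concentration. The concentration for 50% growth inhibition is given as GI50. TGI is the concentration that stops growth completely.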

Assays:
Assay in all cases: NCI tumour cell line growth inhibition, 48 h
[1] = test system: EKVX NSCLC
[2] = test system: HOP-62 NSCLC
[3] = test system: A549 NSCLC
[4] = test system: SK-MEL-28 melanoma
[5] = test system: MALME-3M melanoma
[6] = test system: OVCAR-3 ovarian
[7] = test system: OVCAR-5 ovarian
[8] = test system: SF-539 CNS
[9] = test system: COLO 205 colon
[10] = test system: OVCAR-4 ovarian

SMILES | GI50 [1] [µM] | TGI [1] [µM] | GI50 [2] [µM] | TGI [2] [µM] | GI50 [3] [µM] | TGI [3] [µM] | GI50 [4] [µM] | TGI [4] [µM] | GI50 [5] [µM] | TGI [5] | GI50 [6] [µM] | TGI [6] | GI50 [7] [µM] | TGI [7] | GI50 [8] [µM] | TGI [8] [µM] | GI50 [9] [µM] | TGI [9] [µM] | GI50 [10] [µM] | TGI [10] [µM]
CCOC(=O)c1cnc2c(cnn2CC)c1NN=C(C)C | 20.6 | > 100 | 65.9 | > 100 | 40.1 | > 100 | > 100 | > 100 | > 100 | > 100 µM | 39.5 | > 100 µM | 26.6 | > 100 µM | 74.9 | > 100 | 58.7 | > 100 | 94.6 | > 100
Cc1ccc(N(C(=O)CC(=O)N2N=C(c3ccccc3)C(N=Nc3ccc([N+](=O)[O-])cc3)C2=O)C(=O)c2ccc(Cl)cc2)cc1 (stereo not drawn) | – | > 100 | – | 29.8 | – | > 51.8 | – | > 100 | – | > 100 µM | – | > 91.6 µM | – | > 45.3 µM | – | 35.6 | – | 10.4 | – | > 100
O=C1C(=O)c2c(nc3ncccn23)-c2ccccc21 | 0.396 | 0.954 | 0.296 | 1.05 | 0.23 | 0.516 | 0.21 | 0.41 | 0.169 | 0.307 µM | 0.204 | 0.5 µM | 0.397 | 0.852 µM | 0.188 | 0.388 | 2.13 | 4.53 | 0.161 | 0.297
CC(C)c1ccc(O)c(=O)cc1 | – | > 100 | 3.75 | > 100 | 4.69 | > 71.4 | – | > 100 | 19.9 | > 72 µM and 66.6 µM | 2.03 | > 100 µM and 18.3 µM | 6.84 | 64.8 µM and > 100 µM | 7.69 | 17 | 3.83 | 30.1 | 4.56 | > 100
Cn1cnc([N+](=O)[O-])c1Sc1nnc(C(F)(F)F)n1C | – | > 100 | – | > 100 | – | > 100 | – | 38.1 | – | 44 µM | – | 55.6 µM | – | > 100 µM | – | 65.7 | – | 28.8 | – | 62.6
CCCCC#Cc1cccc(=O)o1 | 12.4 | > 100 | > 100 | > 100 | 45.6 | > 100 | 18.3 | > 100 | 57.4 | > 100 µM | 5.23 | > 100 µM | > 100 | > 100 µM | > 100 | > 100 | 2.23 | 5.3 | > 100 | > 100
Oc1ccc(SCc2ccc(NCc3ccccc3)cc2)cc1 | – | 50.3 | – | > 100 | – | 56.7 | – | > 100 | – | > 100 µM | – | > 100 µM | – | 69.3 µM | – | > 100 | – | > 100 | – | > 100
CCOC(=O)C1(C(=O)OCC)CC=C(C)CC12C(=O)Nc1ccccc12 (stereo not drawn) | – | > 100 | – | > 100 | – | > 100 | – | > 100 | – | > 100 µM | – | > 100 µM | – | > 100 µM | – | > 100 | – | > 100 | – | > 100
